The record followed here is patent EP0359821A1, “METHOD OF STERILIZING PLANT ANTHERS” (priority 1988, dated 1989).

The subject of series [1] is Sommerweizen Sorte Moskovskaya 35. The series is described as follows: Field trial of gametocidal activity, spring wheat. The class given is in vivo, Weizen. The note with it: 1% aqueous emulsion; for response vs control in vivo: control = 100, read-out: Prozentsatz des Ansetzens bei freier Bestäubung.
In series [2] the test system is Winterweizens Sorte Mironovskaya 808. The series can be described thus: Field trial of gametocidal activity (anther sterilisation), winter wheat. The class given is in vivo, Weizen. The note with it: 2% aqueous emulsion, 20 kg/ha; for response vs control in vivo at 20000 g/ha: control = 100, read-out: Prozentsatz des Ansetzens bei freier Bestäubung.
In series [3] the test system is Diploider Roggen Sorte Chulpan. The series is described as follows: Field trial of gametocidal activity, diploid rye Chulpan. The note with it: single compounds, 1% aqueous emulsion, 10 kg/ha; for Anzahl von Körnern der Ähre bei freier Bestäubung / Anzahl von Körnern der Ähre im Isolator: Chulpan; for Anzahl von Körnern der Ähre bei freier Bestäubung / Anzahl von Körnern der Ähre im Isolator / pest or weed control at 10000 g/ha: V. or VI. period; for pest or weed control at 10000 g/ha: read-out: Prozentsatz der Sterilität, Chulpan; for response vs control in vivo at 10000 g/ha: read-out: Prozentsatz des Ansetzens bei freier Bestäubung, Chulpan, control = 100. The format is in vivo. An excerpt: (§1) Bei Weizen und Tritikale werden Einzelisolatoren verwendet.
Pflanzen von diploidem Roggen Sorte Chulpan werden in der V. oder VI.
Der Verbrauch an Sterilisationsmitteln beträgt 10 kg/ha.

For a further series, the system named is Sonnenblume Linie VK 119. The series is described as follows: Field trial of pollen sterilisation, sunflower line VK 119. The note with it: 0,2% aqueous emulsion, 1,2 kg/ha.
For series [4], the system named is Sonnenblume Sorte Peredovik. The series can be described thus: Field trial of pollen sterilisation, sunflower Peredovik. The class given is in vivo. The note with it: 0,2% aqueous emulsion, 1,2 kg/ke (so in the source). The text has this: Pflanzen der Sonnenblume Sorte Peredovik werden in der V. oder VI.
Der Verbrauch an Sterilisationsmittel beträgt 1,2 kg/ke.

For series [5], the system named is Diploider Roggen Sorte Gibrid 340/65. The series can be described thus: Field trial of gametocidal activity, diploid rye Gibrid 340/65. The note with it: Gibrid 340/65 (text: 312/65), 1% aqueous emulsion, 10 kg/ha.
Series [6] has as its system Hirse Sorte Mironovskoe 94. The series can be described thus: Field trial of gametocidal activity, millet Mironovskoe 94. The format is in vivo. The note with it: 1% aqueous emulsion, 10 kg/ha; for Anzahl von Körnern der Rispe bei freier Bestäubung / Anzahl von Körnern der Rispe im Isolator / pest or weed control at 10000 g/ha: V. or VI. period; for pest or weed control at 10000 g/ha: read-out: Prozentsatz der Sterilität; for response vs control in vivo at 10000 g/ha: control = 100, read-out: Prozentsatz des Ansetzens bei freier Bestäubung.

Series [7] in a line: in vivo. The note with it: rat.
The test system of series [8] is Tetraploider Roggen Sorte Belta. The series is described as follows: Field trial of gametocidal activity, tetraploid rye Belta. The note with it: 1% aqueous emulsion, 10 kg/ha. The format is in vivo.
Series [9] has as its system Tetraploider Roggen Sorte Gibrid 67. The series can be described thus: Field trial of gametocidal activity, tetraploid rye Gibrid 67. The class given is in vivo. The note with it: 1% aqueous emulsion, 10 kg/ha.
Source text: as §1
Pflanzen von tetraploidem Roggen Sorte Gibrid 67 werden in der V. oder VI.

Series [10] in a line: in vivo. The note with it: mouse, LD50, weisse Mäuse.
Series [11] has as its system Diploider Roggen Sorte Gibrid 1864/74. The series can be described thus: Field trial of gametocidal activity, diploid rye Gibrid 1864/74. The note with it: 1% aqueous emulsion, 10 kg/ha.
Series [12] has as its system Hirse Sorte K-9693 Kormovoe 1. The series can be described thus: Field trial of gametocidal activity, millet K-9693 Kormovoe 1. The note with it: 1% aqueous emulsion, 10 kg/ha; for Anzahl von Körnern der Rispe bei freier Bestäubung / Anzahl von Körnern der Rispe im Isolator / Prozentsatz der Sterilität: V. or VI. period; for Prozentsatz des Ansetzens bei freier Bestäubung: control = 100.

A short description of series [13]: Toxicity in animal test (result in words).
Series [14] concerns Tetraploider Roggen Sorte Jubileinaya. The series can be described thus: Field trial of gametocidal activity, tetraploid rye Jubileinaya. The note with it: 1% aqueous emulsion, 10 kg/ha.
The conditions of series [15]: in vivo.
Where [16] appears, read: 10 kg/ha, V. period, read-out: Prozentsatz der Sterilität.
Where [17] appears, read: V. or VI. period of organogenesis.
[18] abbreviates: V. or VI. period, listed as Beispiel 74.

Molecules are shown by their SMILES. Like-named read-outs stand apart in the source and are kept apart here.

For `CC(C)OC(=S)S` [Beispiel 5, Kaliumisopropylxanthogenat], in [1] (10 kg/ha, V. period), the “Anzahl von Körnern der Ähre bei freier Bestäubung” value is 24,9 and the “Anzahl von Körnern der Ähre im Isolator” value is 2,3. In addition, the pest or weed control at 10000 g/ha in series [1] (setting [16]) was 91.5%. For the same compound, the response vs control in vivo in series [1] was 90.5%. In addition, in series [2] (setting [17]), the “Anzahl von Körnern der Ähre bei freier Bestäubung” value was 35,2 and the “Anzahl von Körnern der Ähre im Isolator” value is on record as 2,3. Further, the pest or weed control at 20000 g/ha in [2] (V. or VI. period of organogenesis, read-out: Prozentsatz der Sterilität) turned out to be 93.7%. Besides, in series [2], the response vs control in vivo at 20000 g/ha was found to be 86.2%. In [3], the “Anzahl von Körnern der Ähre bei freier Bestäubung” value was 51,8, the “Anzahl von Körnern der Ähre im Isolator” value is recorded as 0,3, the pest or weed control at 10000 g/ha was found to be 99.4% and the response vs control in vivo at 10000 g/ha is 91.4%. In the series with Sonnenblume Linie VK 119, the “Ansetzen von Achänen bei freier Bestäubung in %” value is recorded as 85,3%, the “Ansetzen von Achänen im Isolator bei der Bestäubung mit dem Pollengemisch in %” value is listed as 0,0% and the Pollensterilität in % is on record as 100%. The Pollensterilität in % in series [4] is recorded as 100%. The “Ansetzen von Achänen im Isolator bei der Bestäubung mit dem Pollengemisch in %” value in series [4] (V. or VI. period) is on record as 0,0%. In series [5] (V. and VI. periods), the “Anzahl von Körnern der Ähre bei freier Bestäubung” value is on record as 44,8, the “Anzahl von Körnern der Ähre im Isolator” value is recorded as 0,0 and the “Prozentsatz der Sterilität” value is 100%. Moreover, in series [5] (control = 100), the “Prozentsatz des Ansetzens bei freier Bestäubung” value is reported as 83,5%. Also, in series [6], the “Anzahl von Körnern der Rispe bei freier Bestäubung” value is recorded as 288,6, the “Anzahl von Körnern der Rispe im Isolator” value was 0,0, the pest or weed control at 10000 g/ha stood at 100% and the response vs control in vivo at 10000 g/ha is 76%. In the series “in vivo [7]”, this compound registered an LD50 of 760 mg/kg.

`O=C(O)c1ccccc1F` [Beispiel 24, Diätha- nolaminat der o-Fluorbenzoesäure]: the “Anzahl von Körnern der Ähre bei freier Bestäubung” value is 43,8 in series [8] (setting [18]); 27,1 in series [1] (10 kg/ha, V. period); 54,0 in series [3] (listed as Beispiel 54). The “Anzahl von Körnern der Ähre im Isolator” value in series [8] (setting [18]) is 0,9; in series [1] (10 kg/ha, V. period) it was 2,2; in series [3] (listed as Beispiel 54) it was 0,0. Moreover, the pest or weed control at 10000 g/ha in series [8] (V. or VI. period, read-out: Prozentsatz der Sterilität) stood at 97.8%; in series [1] (setting [16]), 91.9%; in series [3], 100%; in series [6], 100%. The response vs control in vivo at 10000 g/ha in series [8] (control = 100, read-out: Prozentsatz des Ansetzens bei freier Bestäubung) stood at 98.9%; in [3], 95.2%; in series [6] it was 91.2%. In addition, the response vs control in vivo in series [1] turned out to be 98.5%. The compound further returned an LD50 in the series on weisse Mäuse (weisse Mäuse, listed as Diäthanolaminsalz der o-Fluarbenzoesäure) of 500 mg/kg Tiergewicht. Also, the “Anzahl von Körnern der Rispe bei freier Bestäubung” value in series [6] is reported as 348,6. Besides, the “Anzahl von Körnern der Rispe im Isolator” value in series [6] is 0,0.

`O=C(O)c1ccc(O)cc1` [Beispiel 28, Monoäthanolaminat der p-Hydroxybenzoesäure]: in series [9] (V. or VI. period), the “Prozentsatz der Sterilität” value is listed as 99,7%. Also, in [9] (control = 100), the “Prozentsatz des Ansetzens bei freier Bestäubung” value is 93,4%. The LD50 in “in vivo [10]” was 3200 mg/kg. Further, in series [11] (V. period), the “Anzahl von Körnern der Ähre bei freier Bestäubung” value is 46,7, the “Anzahl von Körnern der Ähre im Isolator” value is on record as 1,8 and the “Prozentsatz der Sterilität” value is reported as 95,6%. For the same compound, the “Prozentsatz des Ansetzens bei freier Bestäubung” value in series [11] (control = 100) is reported as 97,7%.

As to `CCCCOC(=S)S` [Beispiel 44, Kaliumbutylxanthogenat], in [3], the “Anzahl von Körnern der Ähre bei freier Bestäubung” value was 48,0, the “Anzahl von Körnern der Ähre im Isolator” value was 2,6, the pest or weed control at 10000 g/ha was 96.2% and the response vs control in vivo at 10000 g/ha was 84.7%. For the same compound, in the series with Sonnenblume Linie VK 119, the “Ansetzen von Achänen bei freier Bestäubung in %” value was 81,5%, the “Ansetzen von Achänen im Isolator bei der Bestäubung mit dem Pollengemisch in %” value is 0,0% and the Pollensterilität in % was 100%. The Pollensterilität in % in series [4] is 100%. In addition, in series [4] (V. or VI. period), the “Ansetzen von Achänen bei freier Bestäubung in %” value is given as 85,3% and the “Ansetzen von Achänen im Isolator bei der Bestäubung mit dem Pollengemisch in %” value is listed as 0,0%. Besides, in series [12], the “Anzahl von Körnern der Rispe bei freier Bestäubung” value was 134,6, the “Anzahl von Körnern der Rispe im Isolator” value is 0,0, the “Prozentsatz der Sterilität” value is given as 100% and the “Prozentsatz des Ansetzens bei freier Bestäubung” value is recorded as 91,2%. This compound also returned an LD50 in “in vivo [7]” of 760 mg/kg.

For `OCC(CO)(CO)CO` [Beispiel 58, Pentaerythrit], the “Toxizität im Tierversuch” value in series [13] is “praktisch nichttoxische”. Moreover, in series [14] (V. or VI. period), the “Anzahl von Körnern der Ähre bei freier Bestäubung” value is 45,6 and the “Anzahl von Körnern der Ähre im Isolator” value is recorded as 0,4. Besides, the “Prozentsatz des Ansetzens bei freier Bestäubung” value in series [14] (control = 100) was 94,4%.

Turning to `OCC(O)CSc1ccc(F)cc1` (stereo not shown) [Beispiel I3], in series [1] (10 kg/ha, V. period), the “Anzahl von Körnern der Ähre bei freier Bestäubung” value is listed as 26,4 and the “Anzahl von Körnern der Ähre im Isolator” value is on record as 2,0. The percent sterility at 10000 g/ha in series [1] (setting [16]) turned out to be 92.3%. Also, the response vs control in vivo in series [1] is 96%. Further, in series [2] (setting [17]), the “Anzahl von Körnern der Ähre bei freier Bestäubung” value is listed as 38,2 and the “Anzahl von Körnern der Ähre im Isolator” value is reported as 3,2. The response vs control in vivo at 20000 g/ha in [2] turned out to be 94.3%. Besides, the LD50 in the series on weisse Mäuse (mouse, in vivo) amounted to 400 mg/kg Tiergewicht. In the series “in vivo [10]”, this compound displayed an LD50 of about 400 mg/kg. Also, in series [12], the “Anzahl von Körnern der Rispe bei freier Bestäubung” value was 128,7, the “Anzahl von Körnern der Rispe im Isolator” value is recorded as 0,0, the “Prozentsatz der Sterilität” value turned out to be 100% and the “Prozentsatz des Ansetzens bei freier Bestäubung” value is reported as 87,7%.

Take `OCC(CO)(CO)CBr` [Brommethyl-tri(oxymethyl)-methan]: in [13], the “Toxizität im Tierversuch” value is given as “praktisch nichttoxische”.

As to `CCC(CO)(CO)CBr` [I-Brom-2,2-di-methylol-butan], the “Toxizität im Tierversuch” value in series [15] was “praktisch nichttoxische”.

For the compound `CCC(CO)(CO)CO` [Trimethylolpropan], the “Toxizität im Tierversuch” value in series [15] is “praktisch nichttoxische”.
